Assay results: patent US20260041620A1, “NOVEL AMINO ACID BASED SALTS, COMPOSITIONS AND METHODS FOR TREATING SKIN AND IMPROVING SKIN REJUVENATION AND LONGEVITY” (Sytheon Ltd, priority 2023, published 2026)
Where two headings read alike, the source gives them in different places.

Key:
FABP-3 = molecular target: T1, FABP-3 (Homo sapiens, UniProt P05413); assay: FABP-3 ELISA inhibitory assay; type: biochemical
T1 construct: purchased Neovateinbio PT-452

HDAC6 = molecular target: T2, HDAC6 (Homo sapiens, UniProt Q9UBN7)
T2 sequence (Q9UBN7 1-1215): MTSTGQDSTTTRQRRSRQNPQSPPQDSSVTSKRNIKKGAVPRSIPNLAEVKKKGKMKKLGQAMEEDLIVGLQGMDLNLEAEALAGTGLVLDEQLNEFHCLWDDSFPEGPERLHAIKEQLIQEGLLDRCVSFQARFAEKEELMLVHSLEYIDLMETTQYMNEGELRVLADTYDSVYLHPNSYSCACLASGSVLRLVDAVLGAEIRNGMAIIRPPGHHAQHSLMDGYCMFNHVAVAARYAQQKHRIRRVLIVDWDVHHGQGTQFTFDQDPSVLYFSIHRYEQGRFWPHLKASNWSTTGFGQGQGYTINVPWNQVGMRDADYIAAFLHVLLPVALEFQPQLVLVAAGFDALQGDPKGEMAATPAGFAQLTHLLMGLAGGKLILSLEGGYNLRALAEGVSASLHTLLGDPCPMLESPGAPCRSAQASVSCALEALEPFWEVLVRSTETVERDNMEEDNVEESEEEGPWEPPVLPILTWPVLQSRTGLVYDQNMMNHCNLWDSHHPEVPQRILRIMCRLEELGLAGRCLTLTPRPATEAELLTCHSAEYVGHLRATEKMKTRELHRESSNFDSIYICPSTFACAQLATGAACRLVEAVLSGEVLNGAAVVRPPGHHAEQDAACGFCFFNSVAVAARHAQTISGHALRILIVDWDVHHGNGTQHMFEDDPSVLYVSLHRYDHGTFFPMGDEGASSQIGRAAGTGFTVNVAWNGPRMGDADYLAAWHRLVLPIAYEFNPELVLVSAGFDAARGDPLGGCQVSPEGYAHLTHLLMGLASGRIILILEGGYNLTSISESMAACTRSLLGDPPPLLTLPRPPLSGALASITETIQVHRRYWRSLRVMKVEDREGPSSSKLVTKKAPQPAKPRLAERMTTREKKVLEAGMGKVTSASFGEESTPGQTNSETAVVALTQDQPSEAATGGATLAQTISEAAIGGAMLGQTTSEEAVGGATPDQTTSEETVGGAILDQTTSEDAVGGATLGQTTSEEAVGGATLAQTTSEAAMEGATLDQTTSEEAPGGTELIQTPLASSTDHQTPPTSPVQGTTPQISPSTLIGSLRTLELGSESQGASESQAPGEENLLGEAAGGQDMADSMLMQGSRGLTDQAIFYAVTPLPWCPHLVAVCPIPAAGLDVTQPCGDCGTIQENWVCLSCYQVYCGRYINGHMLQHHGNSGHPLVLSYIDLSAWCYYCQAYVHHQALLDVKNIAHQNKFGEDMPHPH
Procedure: (§1) Test materials were stored at room temperature and stock solutions were prepared at 20 mg/ml in DMSO. Further dilutions were made in sterile distilled water immediately before being added to the reaction mixture containing a substrate, and the reaction was triggered by the addition of purified HDAC enzymes, Double distilled water was the negative control and trichostatin (1.5 ug/ml) was used as a positive control for validation of each study. The test procedure was as directed in the assay kits. The products of the reactions were measured by fluorometry at ex/em 350/450 nm using multi-well plate fluorometer Cytofluor 4000 (Applied Biosystem, Foster City, CA) or using SpectraMax i3× Multi-Mode Detection Platform from Molecular Devices (Sunnyvale, CA).
(§2) Statistical significance was assessed with a two-tail Student test. Deviations of ≤20% as compared to water control with p values below 0.05 were considered statistically significant.

HDAC7 = molecular target: T3, HDAC7 (Homo sapiens, UniProt Q8WUI4)
T3 sequence (Q8WUI4 1-952): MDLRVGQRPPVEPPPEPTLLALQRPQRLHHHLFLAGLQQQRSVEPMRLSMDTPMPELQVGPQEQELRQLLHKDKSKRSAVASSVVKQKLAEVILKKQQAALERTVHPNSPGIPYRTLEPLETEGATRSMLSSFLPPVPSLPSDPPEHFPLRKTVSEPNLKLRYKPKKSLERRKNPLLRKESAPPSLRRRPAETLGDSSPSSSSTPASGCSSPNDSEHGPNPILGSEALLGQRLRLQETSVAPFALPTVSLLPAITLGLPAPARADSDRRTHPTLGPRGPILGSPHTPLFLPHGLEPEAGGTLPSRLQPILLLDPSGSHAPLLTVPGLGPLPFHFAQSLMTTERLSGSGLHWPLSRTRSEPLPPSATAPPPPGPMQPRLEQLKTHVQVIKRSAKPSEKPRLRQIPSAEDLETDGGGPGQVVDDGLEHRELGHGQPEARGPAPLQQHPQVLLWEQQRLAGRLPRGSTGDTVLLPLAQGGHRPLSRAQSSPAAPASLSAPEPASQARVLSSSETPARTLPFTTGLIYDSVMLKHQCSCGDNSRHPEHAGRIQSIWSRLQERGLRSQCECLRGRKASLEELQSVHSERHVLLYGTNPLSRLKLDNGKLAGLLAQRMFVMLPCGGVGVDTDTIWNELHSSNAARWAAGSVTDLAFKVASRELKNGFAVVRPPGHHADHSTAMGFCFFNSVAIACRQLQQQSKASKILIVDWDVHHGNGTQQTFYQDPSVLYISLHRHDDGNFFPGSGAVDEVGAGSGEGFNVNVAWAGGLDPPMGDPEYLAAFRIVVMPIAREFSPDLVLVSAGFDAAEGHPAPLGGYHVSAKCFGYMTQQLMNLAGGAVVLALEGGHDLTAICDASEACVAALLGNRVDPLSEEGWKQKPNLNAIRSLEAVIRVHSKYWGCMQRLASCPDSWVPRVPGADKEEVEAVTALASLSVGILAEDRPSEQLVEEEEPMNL
Procedure: as §1, §2

HDAC10 = molecular target: T4, HDAC10 (Homo sapiens, UniProt Q969S8)
T4 sequence (Q969S8 1-669): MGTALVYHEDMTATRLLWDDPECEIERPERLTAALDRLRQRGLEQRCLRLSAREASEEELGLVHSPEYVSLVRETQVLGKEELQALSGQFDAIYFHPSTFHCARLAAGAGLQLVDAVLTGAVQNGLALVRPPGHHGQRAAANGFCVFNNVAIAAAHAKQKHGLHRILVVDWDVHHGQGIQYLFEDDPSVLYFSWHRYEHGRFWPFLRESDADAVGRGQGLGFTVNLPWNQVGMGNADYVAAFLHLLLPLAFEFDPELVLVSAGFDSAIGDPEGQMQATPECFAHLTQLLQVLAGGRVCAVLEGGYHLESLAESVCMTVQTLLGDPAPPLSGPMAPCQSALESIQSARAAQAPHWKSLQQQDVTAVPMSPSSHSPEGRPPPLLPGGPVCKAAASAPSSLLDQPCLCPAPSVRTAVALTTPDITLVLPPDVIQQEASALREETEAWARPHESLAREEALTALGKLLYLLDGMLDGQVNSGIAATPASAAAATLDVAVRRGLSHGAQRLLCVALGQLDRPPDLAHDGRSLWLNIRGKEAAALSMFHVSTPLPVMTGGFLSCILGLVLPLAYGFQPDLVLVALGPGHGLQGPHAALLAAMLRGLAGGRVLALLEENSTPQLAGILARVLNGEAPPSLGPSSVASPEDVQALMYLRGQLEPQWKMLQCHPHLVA
Procedure: as §1, §2

T1 sequence (P05413 whole entry): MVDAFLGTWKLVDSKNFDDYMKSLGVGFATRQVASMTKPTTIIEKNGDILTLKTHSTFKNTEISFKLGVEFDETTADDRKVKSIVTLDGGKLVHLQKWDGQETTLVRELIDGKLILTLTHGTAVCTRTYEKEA

Molecule	FABP-3 IC50 (FABP-3) [µg/mL]	HDAC 6 activity, % of water-treated controls (HDAC6; 5 ug/ml) [%]	HDAC 6 activity, % of water-treated controls (HDAC6; 25 ug/ml) [%]	HDAC 6 activity, % of water-treated controls (HDAC6; 50 ug/ml) [%]	HDAC 6 activity, % of water-treated controls (HDAC6; 100 ug/ml) [%]	HDAC 6 activity, % of water-treated controls (HDAC6; 200 ug/ml) [%]	HDAC 7 activity, % of water-treated controls (HDAC7; 5 ug/ml) [%]	HDAC 7 activity, % of water-treated controls (HDAC7; 25 ug/ml) [%]	HDAC 7 activity, % of water-treated controls (HDAC7; 50 ug/ml) [%]	HDAC 7 activity, % of water-treated controls (HDAC7; 100 ug/ml) [%]	HDAC 7 activity, % of water-treated controls (HDAC7; 200 ug/ml) [%]	HDAC 10 activity, % of water-treated controls (HDAC10; 5 ug/ml) [%]	HDAC 10 activity, % of water-treated controls (HDAC10; 25 ug/ml) [%]	HDAC 10 activity, % of water-treated controls (HDAC10; 50 ug/ml) [%]	HDAC 10 activity, % of water-treated controls (HDAC10; 100 ug/ml) [%]	HDAC 10 activity, % of water-treated controls (HDAC10; 200 ug/ml) [%]	HDAC 6 activity, % of water-treated controls (HDAC6; 400 ug/ml) [%]	HDAC 7 activity, % of water-treated controls (HDAC7; 400 ug/ml) [%]	HDAC 10 activity, % of water-treated controls (HDAC10; 400 ug/ml) [%]
CCCC(=O)NCCCC[C@H](NC(=O)CCC)C(=O)[O-].CCCC(=O)NCCCC[C@H](NC(=O)CCC)C(=O)[O-].[Zn+2] [Zn di-(di-n-butyryl lysinate), Zinc di-(di-n-butyryl lysinate)]	242.4	25	18	19	21	19	56	28	15	9	9	21	15	13	9	7	–	–	–
CCCC(=O)N[C@@H](CC(C)C)C(=O)[O-].CCCC(=O)N[C@@H](CC(C)C)C(=O)[O-].[Zn+2] [Zn di-(n-butyryl leucinate), Zinc di-(n-butyryl leucinate)]	630.9	20	20	21	20	17	41	18	11	9	9	21	13	10	8	6	–	–	–
CCCC(=O)[O-].[Na+] [Sodium butyrate, reference compound]	–	–	–	107	110	92	–	–	96	94	87	–	–	100	103	93	102	91	61
CCCC(=O)NCCCCC(NC(=O)CCC)C(=O)[O-].CCCC(=O)NCCCCC(NC(=O)CCC)C(=O)[O-].[Ca+2] (stereo not drawn) [Ca di-(di-n-butyryl lysinate), calcium di-(di-n-butyryl lysinate)]	188.6	105	97	124	128	134	–	101	99	99	97	–	105	103	104	90	–	–	–
Zinc Di-lysinate [Zn dilysinate]	255.2	22	16	17	14	8	–	30	18	10	10	–	19	12	9	6	–	–	–
